Test results reported in US20080085264A1, “METHODS FOR ENHANCING STEM CELL ENGRAFTMENT DURING TRANSPLANTATION” (priority 2003, published 2008).

What was measured:
C57BL/6 mice [1] = experiment: G-CSF induced mobilization of HSC/HPC in C57BL/6 mice (progenitor cell assays of peripheral blood); assay type: in vivo, mouse; conditions: inhibitor 5 μmol/mouse 2×/day s.c. during G-CSF mobilization, C57BL/6
Method: Mobilization was achieved by treating mice with 2.5 μg (micrograms) G-CSF/mouse 2×/day s.c. for 2 days (Broxmeyer H E, et al. J Exp Med. 1999; 189:1987-1992). Mice simultaneously treated with a specific CD26 inhibitor also underwent treatment with either 5 μmol Diprotin A/mouse 2×/day s.c. for 2 days or 5 μmol Val-Pyr/mouse 2×/day s.c. for 2 days. Diprotin A was obtained commercially (Peptides International, Louisville, Ky.) and Val-Pyr was obtained as a gift from Nicolai Wagtmann (Novo Nordisk, Denmark). After either G-CSF or G-CSF plus CD26 inhibitor treatment peripheral blood cells were collected and total cellular nuclearity was measured and progenitor cell assays were performed using total peripheral blood cells.
One-hundred thousand mouse G-CSF mobilized peripheral blood cells were plated in triplicate for colony formation by CFU-GM, BFU-E, and CFU-GEMM and scored at 7 days incubation as previously described (Cooper S, Broxmeyer H E. Measurement of interleukin-3 and other hematopoietic growth factors, such as GM-CSF, G-CSF, M-CSF, erkythropoietin and the potent co-stimulating cytokines steel factor and FLt-3 ligand. In: Coligan J E K A, Margulies D H, Shevach E M, Strober E, Coico R, ed. Current protocols in immunology. New York: John Wiley & Sons; 1996:6.4.1-6.4.12). Cells were plated for colony formation in 1% methylcellulose culture medium containing 30% FBS, 1 U/ml recombinant(r) human Epo, 0.1 mM Hemin, 5% Pokeweed Mitogen Spleen Conditioned Media (PWMSCM), and 50 ng/ml rmouse Steel Factor (=Stem Cell Factor, SCF).

[2] = tested on: Sca-1+lin- mouse BM cells; experiment: Chemotaxis assay, CXCL12 induced migration of Sca-1+lin- mouse BM cells; assay type: cell-based
Method: Chemotaxis assays were performed using 96-well chemotaxis chambers (NeuroProbe, Gaithersburg, Md.) in accordance with manufacturer's instructions as described previously with minor variations (Christopherson K W, 2nd, et al. J Immunol. 2002; 169:7000-7008; Christopherson K W, 2nd, et al. Blood. 2001; 98:3562-3568; Christopherson K, 2nd, et al. Immunol Lett. 1999; 69:269-273). Briefly 300 μl of RPMI supplemented with 10% FBS and either 0, 100, 200, and 400 ng/ml of mouse CXCL12 chemokine was added to the lower chamber. Ten-thousand sorted cells in 50 μL of media were added to the upper side of the membrane (5.7 mm diameter, 5 μm pore size, polycarbonate membrane.)
Total cell number in the lower well was obtained by counting using hemocytometer after 4 hours of incubation at 37° C., 5% CO2. Percent migration was calculated by dividing the number of the cells in the lower well by the total cell input multiplied by 100 and subtracting random migration (always less than 5%) to the lower chamber without chemokine presence. Three samples were analyzed separately in triplicate, and then the data averaged for statistical analysis.
Inhibition of endogenous CD26/DPPIV activity was accomplished by pretreatment of cells with 5 mM Diprotin A (Peptides International, Louisville, Ky.) for 15 minutes at 37° C. Diprotin A was allowed to remain in the chemotaxis chamber during the assay. […]

CD26/DPPIV = target: T1, CD26/DPPIV (Mus musculus, UniProt P28843); experiment: CD26/DPPIV peptidase activity of C57BL/6 BM cells (Gly-Pro-pNA); assay type: cell-based
T1 construct: endogenous in cells; host or cells: sorted mouse (C57BL/6) bone marrow cells
Method: Proteolytic activity was determined by measurement of the amount of p-nitroanilide (pNA) formed in the supernatant at 405 nm. One thousand cells per well in the 96-well flat-bottomed plate were incubated at 37° C. with 4 mM Gly-Pro-pNA in 100 μL PBS buffer (pH 7.4) containing 10 mg/ml BSA. Absorbance was measured at 405 nm on a microplate spectrofluorometer (SpectraMax 190, Molecular Devices, Sunnyvale, Calif.) every two minutes and pmoles of pNA formed were calculated by comparison to a pNA standard curve. The results were plotted as pmoles pNA versus minutes and the slope was calculated at the linear portion of the curve giving a measure of DPPIV activity expressed as pmoles/min (U) per 1000 cells. Tests were run using three separate samples (n=3 for each sample); cell-free blanks, substrate-free blanks were run in parallel.

BoyJ recipient mice = experiment: Non-competitive long-term engraftment; assay type: in vivo, mouse; conditions: six months post transplant, P<0.05, n=5
Method: Control C57BL/6 (CD45.2^+) or CD26 inhibitor treated C57BL/6 (CD45.2^+) LD donor BM cells were transplanted by tail-vein injection into lethally irradiated (1100 cGy split dose) congenic BoyJ (CD45.1^+) female recipient mice (Haneline L S, et al. Blood. 1999; 94:1-8). Contribution of donor cells was obtained by measuring the number of donor and residual recipient lymphocytes in the peripheral blood. The % donor contribution was calculated by flow cytometric analysis of peripheral blood lymphocytes found in the recipient mouse peripheral blood by measuring CD45.1^+ and CD45.2^+ on cells isolated from the recipient mice 1-6 months post transplant. No less than five mice from each recipient group were analyzed, each one having received a transplant of 5×10^5 pooled LD donor BM cells. Comparisons between treatment groups were made using a two-tailed Student's t-test and data was plotted as mean (M)±standard error of the mean (SEM).

C57BL/6 mice [3] = experiment: G-CSF induced mobilization of HSC/HPC in C57BL/6 mice (progenitor cell assays of peripheral blood); assay type: in vivo; conditions: 5 μmol/mouse 2×/day s.c. alone, without G-CSF
DBA/2 mice = experiment: G-CSF induced mobilization of HSC/HPC in DBA/2 mice (progenitor cell assays of peripheral blood); assay type: in vivo, mouse; conditions: without G-CSF

T1 sequence (P28843 whole entry): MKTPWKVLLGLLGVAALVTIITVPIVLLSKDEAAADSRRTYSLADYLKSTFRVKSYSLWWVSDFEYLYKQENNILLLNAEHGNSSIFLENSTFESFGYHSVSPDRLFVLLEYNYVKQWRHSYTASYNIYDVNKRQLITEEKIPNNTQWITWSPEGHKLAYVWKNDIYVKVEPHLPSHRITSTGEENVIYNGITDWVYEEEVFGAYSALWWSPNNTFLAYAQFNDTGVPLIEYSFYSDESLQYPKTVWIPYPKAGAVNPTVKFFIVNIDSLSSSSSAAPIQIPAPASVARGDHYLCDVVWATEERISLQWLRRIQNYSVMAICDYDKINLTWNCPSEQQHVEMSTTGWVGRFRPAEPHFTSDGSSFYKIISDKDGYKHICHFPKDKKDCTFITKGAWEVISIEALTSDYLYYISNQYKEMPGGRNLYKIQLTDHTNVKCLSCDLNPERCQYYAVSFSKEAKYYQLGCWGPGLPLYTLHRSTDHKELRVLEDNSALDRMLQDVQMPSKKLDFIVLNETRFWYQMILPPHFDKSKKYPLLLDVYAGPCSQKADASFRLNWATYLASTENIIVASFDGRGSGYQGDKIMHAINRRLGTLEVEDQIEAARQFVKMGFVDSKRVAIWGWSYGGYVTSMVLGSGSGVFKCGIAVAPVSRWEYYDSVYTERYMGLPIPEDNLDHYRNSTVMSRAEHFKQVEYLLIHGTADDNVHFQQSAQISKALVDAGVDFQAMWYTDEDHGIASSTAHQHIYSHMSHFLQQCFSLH

CD26 peptidase activity with inhibitor treatment (CD26/DPPIV; C57BL/6 BM cells, P<0.01): rapidly lost
recovery of CD26 activity begins, time post treatment (CD26/DPPIV; cells washed 15 minutes post inhibitor treatment): within four hours
Substance: Ile-Pro-Ile [Diprotin A]
reduction in BFU-E compared to G-CSF alone (C57BL/6 mice [1]): 29%
reduction in CFU-GEMM compared to G-CSF alone (C57BL/6 mice [1]): 63%
reduction in CFU-GM compared to G-CSF alone (C57BL/6 mice [1]): 59%
increase in CXCL12-induced migratory response ([2]; Diprotin A treated Sca-1+lin- BM cells from C57BL/6 mice): two-fold
effect on CXCL12-induced migration of CD26-/- cells ([2]; Diprotin A treatment of CD26-/- Sca-1+lin- cells compared to untreated CD26-/- cells): no further enhancing effect
donor cell contribution to the formation of peripheral blood leukocytes (BoyJ recipient mice): Increased donor cell contribution
effect on the mobilization of progenitors, inhibitor alone (C57BL/6 mice [3]): little or no effect
effect on the mobilization of progenitors, inhibitor alone (DBA/2 mice): little or no effect
